Among the data in patent US20060116390A1, “Hepatitis c virus inhibitors” (priority 2003, published 2006) are IC50 values, retold here.

Each structure is given as a SMILES string. Counter-ions that a name gives are not always drawn. Like-named read-outs stand apart in the source and are kept apart here.

Usually IC50 stands for the concentration that gives 50% inhibition.

The subject of the assay is HCV proteins in Rep5.1 cells (replicon cell line). Description: Inhibitory activity of HCV: cell-based ELISA in replicon cell line Rep5.1 (decrease of HCV proteins). Further details: species or system hepatitis C virus. An outline of the steps: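 HCV protein loss was quantified by ELISA on methanol/acetone-fixed cells 72 h after drug addition, probing with selected HCV-positive human plasma, and IC50 was defined as 50% reduction relative to untreated wells. The cells were Rep5.1 replicon cells cultured in DMEM-10 with 500 μg/ml G418, plated at 5000 per well and dosed with serial dilutions after 4 h attachment.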
For orientation: ELISA stands for enzyme-linked immunosorbent assay.

[1] abbreviates: Hepatitis C virus, 72 h, Rep5.1 cells, 72 hours with drug, concentration at which 50% of HCV proteins was decreased, Table 2, read-out: IC50.
Where [2] appears, read: Hepatitis C virus, 72 h, Rep5.1 cells, 72 hours with drug, decrease of HCV proteins measured by HCV antibody, Table 1, read-out: Level (IC50 values classified).
Setting [3] is: Rep5.1 cells, 72 hours with drug, concentration at which 50% of HCV proteins was decreased, Table 2, read-out: IC50.

Regarding `CC1=C(C(=O)OCCc2ccsc2)C(CCl)NC(=S)N1` (stereo not shown) [76′, 4-chloromethyl-6-methyl-2-thioxo-1,2,3,4-tetrahydro-pyrimidine-5-carboxylic acid 2-thiophen-3-yl-ethyl ester], the IC50 reads like this: under setting [1], 62 µM; under setting [2], greater than 20 µM. With `CC1=C(C(=O)OCCc2cccc(Cl)c2)C(COC(=O)OCCOC(=O)c2ccccc2)NC(=S)N1` (stereo not shown) [76″, 4-(2-benzoyloxy-ethoxycarbonyloxymethyl)-6-methyl-2-thioxo-1,2,3,4-tetrahydro-pyrimidine-5-carboxylic acid 2-(3-chloro-phenyl)-ethyl ester], the IC50 is 0.9 µM under setting [1] and less than 1 µM under setting [2].

Take `CC1=C(C(=O)OCCc2ccccc2[N+](=O)[O-])C(CF)NC(=S)N1` (stereo not shown) [77′, 4-fluoromethyl-6-methyl-2-thioxo-1,2,3,4-tetrahydro-pyrimidine-5-carboxylic acid 2-(2-nitro-phenyl)-ethyl ester]: the IC50 under setting [1] was determined as 39 µM and the IC50 under setting [2] was greater than 20 µM. `CC1=C(C(=O)OCCc2cccc([N+](=O)[O-])c2)C(COC(=O)OCC2COC(C)(C)O2)NC(=S)N1` (stereo not shown) [77″, 4-(2,2-dimethyl-[1,3]dioxolan-4-ylmethoxycarbonyloxymethyl)-6-methyl-2-thioxo-1,2,3,4-tetrahydro-pyrimidine-5-carboxylic acid 2-(3-nitro-phenyl)-ethyl ester]: the IC50 was 5.6 µM under setting [1] and 1 to 10 µM under setting [2]. Take `CC1=C(C(=O)OCc2cc(Cl)ccc2[N+](=O)[O-])C(CF)NC(=S)N1` (stereo not shown) [78′, 4-fluoromethyl-6-methyl-2-thioxo-1,2,3,4-tetrahydro-pyrimidine-5-carboxylic acid 5-chloro-2-nitro-benzyl ester]: the concentration for half-maximal inhibition (IC50) was 11 µM under setting [1] and 10 to 20 µM under setting [2]. For the compound `CC1=C(C(=O)OCCc2cccc(Cl)c2)C(COC(=O)OCc2oc(=O)oc2C)NC(=S)N1` (stereo not shown) [78″, 6-methyl-4-(5-methyl-2-oxo-[1,3]dioxol-4-ylmethoxycarbonyloxymethyl)-2-thioxo-1,2,3,4-tetrahydro-pyrimidine-5-carboxylic acid 2-(3-chloro-phenyl)-ethyl ester], the 50% inhibitory concentration (IC50) was 0.8 µM under setting [1] and less than 1 µM under setting [2]. Consider `CC1=C(C(=O)OCc2ccc(F)cc2Cl)C(CF)NC(=S)N1` (stereo not shown) [79′, 4-fluoromethyl-6-methyl-2-thioxo-1,2,3,4-tetrahydro-pyrimidine-5-carboxylic acid 2-chloro-4-fluoro-benzyl ester], for which the half-maximal inhibitory concentration (IC50) reads like this: under setting [1], 1 µM; under setting [2], less than 1 µM.

On to `CC(=O)SCCOC(=O)OCC1NC(=S)NC(C)=C1C(=O)OCCc1cccc([N+](=O)[O-])c1` (stereo not shown) [79″, 4-(2-acetylsulfanyl-ethoxycarbonyloxymethyl)-6-methyl-2-thioxo-1,2,3,4-tetrahydro-pyrimidine-5-carboxylic acid 2-(3-nitro-phenyl)-ethyl ester], for which the half-inhibitory concentration (IC50) is 6.2 µM under setting [1] and 1 to 10 µM under setting [2]. For `CC1=C(C(=O)OCCc2ccsc2)C(C(F)F)NC(=S)N1` (stereo not shown) [80′, 4-difluoromethyl-6-methyl-2-thioxo-1,2,3,4-tetrahydro-pyrimidine-5-carboxylic acid 2-thiophen-3-yl-ethyl ester], the IC50 was 11 µM under setting [1] and 10 to 20 µM under setting [2]. On to `COC(=O)NCCOC(=O)OCC1NC(=S)NC(C)=C1C(=O)OCCc1cccc(Cl)c1` (stereo not shown) [80″, 4-(2-methoxycarbonylnamino-ethoxycarbonyloxymethyl)-6-methyl-2-thioxo-1,2,3,4-tetrahydro-pyrimidine-5-carboxylic acid 2-(3-chloro-phenyl)-ethyl ester], for which, under setting [3], the IC50 came out at 1.1 µM. Consider `COc1ccc(Cl)cc1COC(=O)C1=C(C)NC(=S)NC1CF` (stereo not shown) [81′, 4-fluoromethyl-6-methyl-2-thioxo-1,2,3,4-tetrahydro-pyrimidine-5-carboxylic acid 5-chloro-2-methoxy-benzyl ester], for which, under setting [3], the concentration for half-maximal inhibition (IC50) was found to be 2.4 µM. Consider `CC(=O)Oc1ccccc1CCC(=O)OCC1NC(=S)NC(C)=C1C(=O)OCCc1cccc([N+](=O)[O-])c1` (stereo not shown) [81″, 4-[3-(2-acetoxy-phenyl)-propionyloxymethyl]-6-methyl-2-thioxo-1,2,3,4-tetrahydro-pyrimidine-5-carboxylic acid 2-(3-nitro-phenyl)-ethyl ester], for which the IC50 reads like this: under setting [1], 6.5 µM; under setting [2], 1 to 10 µM.

With `COc1ccc(COC(=O)C2=C(C)NC(=S)NC2CF)cc1Cl` (stereo not shown) [82′, 4-fluoromethyl-6-methyl-2-thioxo-1,2,3,4-tetrahydro-pyrimidine-5-carboxylic acid 3-chloro-4-methoxy-benzyl ester], the IC50 was 2.5 µM under setting [1] and 1 to 10 µM under setting [2]. In the case of `COC(=O)C(C)(C)COC(=O)OCC1NC(=S)NC(C)=C1C(=O)OCCc1cccc(Cl)c1` (stereo not shown) [82″, 4-(2-methoxycarbonyl-2-methyl-propoxycarbonyloxymethyl)-6-methyl-2-thioxo-1,2,3,4-tetrahydro-pyrimidine-5-carboxylic acid 2-(3-chloro-phenyl)-ethyl ester], the IC50 by setting is: under setting [1], 0.8 µM; under setting [2], less than 1 µM. Turning to `CC1=C(C(=O)OCc2cc([N+](=O)[O-])ccc2Cl)C(CF)NC(=S)N1` (stereo not shown) [83′, 4-fluoromethyl-6-methyl-2-thioxo-1,2,3,4-tetrahydro-pyrimidine-5-carboxylic acid 2-chloro-5-nitro-benzyl ester], the IC50 is, setting by setting: under setting [1], 5.7 µM; under setting [2], 1 to 10 µM. Regarding `CCOC(=O)COC(=O)OCC1NC(=S)NC(C)=C1C(=O)OCCc1cccc([N+](=O)[O-])c1` (stereo not shown) [83″, 4-ethoxycarbonylmethoxycarbonyloxymethyl-6-methyl-2-thioxo-1,2,3,4-tetrahydro-pyrimidine-5-carboxylic acid 2-(3-nitro-phenyl)-ethyl ester], the IC50 was 6.1 µM under setting [1] and 1 to 10 µM under setting [2]. For `COc1ccc(Cl)cc1CCOC(=O)C1=C(C)NC(=S)NC1CF` (stereo not shown) [84′, 4-fluoromethyl-6-methyl-2-thioxo-1,2,3,4-tetrahydro-pyrimidine-5-carboxylic acid 2-(5-chloro-2-methoxy-phenyl)-ethyl ester], the IC50 is 0.9 µM under setting [1] and less than 1 µM under setting [2]. Consider `CC1=C(C(=O)OCCc2cccc(Cl)c2)C(COC(=O)OCCS(C)(=O)=O)NC(=S)N1` (stereo not shown) [84″, 4-(2-methanesulfonyl-ethoxycarbonyloxymethyl)-6-methyl-2-thioxo-1,2,3,4-tetrahydro-pyrimidine-5-carboxylic acid 2-(3-chloro-phenyl)-ethyl ester], for which the IC50 reads like this: under setting [1], 0.9 µM; under setting [2], less than 1 µM.

As to `CC1=C(C(=O)OCCc2cc(F)cc(F)c2)C(CF)NC(=S)N1` (stereo not shown) [85′, 4-fluoromethyl-6-methyl-2-thioxo-1,2,3,4-tetrahydro-pyrimidine-5-carboxylic acid 2-(3,5-difluoro-phenyl)-ethyl ester], the IC50 by setting is: under setting [1], 2.7 µM; under setting [2], 1 to 10 µM. Taken in the same sequence, the figures for `CC1=C(C(=O)OCCc2ccc(F)cc2Cl)C(CF)NC(=S)N1` (stereo not shown) [86′, 4-fluoromethyl-6-methyl-2-thioxo-1,2,3,4-tetrahydro-pyrimidine-5-carboxylic acid 2-(2-chloro-4-fluoro-phenyl)-ethyl ester] were less than 0.4 µM and less than 1 µM.

Turning to `CC1=C(C(=O)OCCc2cccc(Cl)c2)C(COC(=O)NCCN(C)C)NC(=S)N1` (stereo not shown) [86″, 4-(2-dimethylamino-ethylcarbamoyloxymethyl)-6-methyl-2-thioxo-1,2,3,4-tetrahydro-pyrimidine-5-carboxylic acid 2-(3-chloro-phenyl)-ethyl ester trifluoroacetate], the IC50 by setting is: (Hepatitis C virus, 72 h) 0.7 µM; (Hepatitis C virus, 72 h, read-out: Level (IC50 values classified)) less than 1 µM. On to `CC1=C(C(=O)OCCc2c(F)cccc2Cl)C(CF)NC(=S)N1` (stereo not shown) [87′, 4-fluoromethyl-6-methyl-2-thioxo-1,2,3,4-tetrahydro-pyrimidine-5-carboxylic acid 2-(2-chloro-6-fluoro-phenyl)-ethyl ester], for which the IC50 is, setting by setting: under setting [1], less than 0.4 µM; under setting [2], less than 1 µM.

As for `CC1=C(C(=O)SCCc2ccccc2)C(CF)NC(=S)N1` (stereo not shown) [88′, 4-fluoromethyl-6-methyl-2-thioxo-1,2,3,4-tetrahydro-pyrimidine-5-carbothioic acid S-phenethyl ester], the IC50 reads like this: under setting [1], 0.4 µM; under setting [2], less than 1 µM. As to `CC1=C(C(=O)OCCc2cccc(Cl)c2)C(COC(=O)OCC2COC(=O)O2)NC(=S)N1` (stereo not shown) [88″, 6-methyl-4-(2-oxo-[1,3]dioxolan-4-ylmethoxycarbonyloxymethyl)-2-thioxo-1,2,3,4-tetrahydro-pyrimidine-5-carboxylic acid 2-(3-chloro-phenyl)-ethyl ester], the IC50 was 0.9 µM under setting [1] and less than 1 µM under setting [2]. As to `CC1=C(C(=O)OCc2cc(Cl)cc(Cl)c2)C(CF)NC(=S)N1` (stereo not shown) [89′, 4-fluoromethyl-6-methyl-2-thioxo-1,2,3,4-tetrahydro-pyrimidine-5-carboxylic acid 3,5-dichloro-benzyl ester], the IC50 was 0.4 µM under setting [1] and less than 1 µM under setting [2]. In the case of `CC1=C(C(=O)OCCc2cccc([N+](=O)[O-])c2)C(COC(=O)c2ccccc2)NC(=S)N1` (stereo not shown) [89″, 4-benzoyloxymethyl-6-methyl-2-thioxo-1,2,3,4-tetrahydro-pyrimidine-5-carboxylic acid 2-(3-nitro-phenyl)-ethyl ester], the IC50 under setting [1] came out at 6.8 µM and the half-inhibitory concentration (IC50) under setting [2] was 1 to 10 µM. Take `CC1=C(C(=O)OCCc2ccc(F)c(F)c2)C(CF)NC(=S)N1` (stereo not shown) [90′, 4-fluoromethyl-6-methyl-2-thioxo-1,2,3,4-tetrahydro-pyrimidine-5-carboxylic acid 2-(3,4-difluoro-phenyl)-ethyl ester]: the IC50 is, setting by setting: under setting [1], 0.8 µM; under setting [2], less than 1 µM.
